Reference: patent US20050014682A1 (priority 2003, published 2005)
Like-named read-outs stand apart in the source and are kept apart here. Starred links: 1 amine or outer side, 2 acyl side, 3 side chain; linkers in the order of their positions; H or OH if unused. Positions of bridges follow the written chain, without caps; N, C: chain ends. Non-standard residues stand in square brackets, D forms with d. Residues, ends and D or L forms follow the SMILES beside them. Adda = CO[C@@H](Cc1ccccc1)[C@@H](C)/C=C(C)/C=C/[C@H](N[*:1])[C@H](C)C(=O)[*:2]; dAsp(3S-Me) = C[C@H](C(=O)[*:3])[C@@H](N[*:1])C(=O)[*:2]; d(γGlu) = O=C(O)[C@@H](CCC(=O)[*:2])N[*:1]; NMeDha = C=C(NC)C(=O)O

What was measured:
Akt = assay: Cell-free in vitro assay (3T3-L1 adipocyte PM/CYT/LDM fractions), Akt phosphorylation by phospho-Akt immunoblot; assay type: biochemical; conditions: for ability of phosphatidylinositol lipids to stimulate Thr308 and Ser473 phosphorylation of Akt: data not shown
PDK2 = PDK2 activity in in vitro reactions at different chloride concentrations; assay type: biochemical
[1] = 10 μM PIP3 added to CYT alone, non-insulin treated cells, 15 min at 37° C.
[2] = 10 μM PIP3 added to CYT and LDM, 15 min at 37° C.

Compound: O[C@@H](CS)[C@@H](O)CS [DTT]
- signal for both Akt phosphorylation sites in reactions containing PM(+ins) (Akt; 15 min at 37° C.): appeared to inhibit the phospho-Akt signal in most cases

Compound: C=C1C(=O)N[C@H](C)C(=O)N[C@@H](CC(C)C)C(=O)N[C@@H](C(=O)O)[C@H](C)C(=O)N[C@@H](CCCNC(=N)N)C(=O)N[C@@H](/C=C/C(C)=C/[C@H](C)[C@H](Cc2ccccc2)OC)[C@H](C)C(=O)N[C@@H](C(=O)O)CCC(=O)N1C [Microcystin, microcystin-LR] (R[Adda][d(γGlu)][NMeDha][dA]L[dAsp(3S-Me)]-OH; lactam N-7)
- control (basal) phospho-Akt signal in reactions containing PM(−ins) (Akt): elevated the basal signal only for the Ser473 site
- signal for both Akt phosphorylation sites in reactions containing PM(+ins) (Akt): increased the insulin-stimulated signal

Compound: Cl [chloride]
- chloride concentration that completely inhibits PDK2 activity (PDK2): > 100 mM
- PIP3-induced Ser473 phosphorylation (Akt): completely inhibited
- insulin-stimulated phosphorylation of both Thr308 and Ser473 (Akt; 145 mM chloride (140 mM KCl/5 mM NaCl or 145 mM NaCl), PM and CYT): almost completely suppressed
- PIP3-stimulated Thr308 phosphorylation (Akt; high chloride (145 mM), 10 μM PIP3, PM(−ins) and CYT): severely inhibited

Compound: phosphatidylinositol(3,4)P2 [PI (3,4)P2]
- ability of phosphatidylinositol lipids to stimulate Thr308 and Ser473 phosphorylation of Akt (Akt): could stimulate

Compound: phosphatidylinositol(3,4,5)P3 [PIP3]
- Ser473 phosphorylation of Akt (Akt; [1]): occurred only marginally
- Thr308 phosphorylation of Akt (Akt; [1]): efficient phosphorylation
- Ser473 signal (Akt; [2]): robust
- Thr308 signal relative to reaction containing CYT alone (Akt; [2]): not further enhanced
- ability of phosphatidylinositol lipids to stimulate Thr308 and Ser473 phosphorylation of Akt (Akt): could stimulate
